According to patent publication US20090136553A1, “TRIGGERABLY DISSOLVABLE HOLLOW FIBERS FOR CONTROLLED DELIVERY” (priority 2007, published 2009):

How the values were obtained:
[1] = test system: surgically created aneurysm; conditions: bFGF collagen gel in fiber lumen, three weeks; cited from earlier work
[2] = test system: endothelial cell migration and vessel formation in Matrigel plug; assay: In vivo murine Matrigel plug assay; set-up: species or system C57BL/6 mice; conditions: 10 μL daily of 100 μg/mL VEGF or 1800 μM S1P via fiber, 7 days post-implantation
Method: In vivo Assay. Growth factor reduced Matrigel™ (500 μL) was injected into the subcutaneous space on the dorsal side of C57BL/6 mice on both the left and right sides. A 12 G needle was used to thread cellulose hollow fibers through the skin and Matrigel™ plugs. Hollow fibers were fixed in place using tissue glue and an Elizabethan collar was used to prevent mice from extracting the hollow fiber. On the day of implantation and every day for the next 6 days, hollow fibers on the left side were injected with sterile saline and hollow fibers on the right side were injected with 10 μL of 100 μg/mL VEGF or 1800 μM S1P (see Table 8 for schedule).
Seven days post-implantation, implants were extracted, fixed and analyzed for endothelial cell migration and vessel formation. […] CD31 staining of Matrigel™ plug explants confirms that cells that have migrated into the Matrigel™ plugs are in fact endothelial cells (FIGS. 21E-H). Metamorph® was used to measure the % area of each image that consisted of endothelial cell staining in order to quantify endothelial cell migration.

Substance	fibrous tissue formation in aneurysm [1]	blood filled vessels (H&E) [2]
basic fibroblast growth factor [bFGF]	remained functional as it was able to guide the aneurysm to create fibrous tissue	–
vascular endothelial growth factor [VEGF]	–	blood filled vessels
